This note sets out measurements from PubChem BioAssay (NCI).

Each structure is given as a SMILES string.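 Results reflect a 48-hour exposure of cells in 96-well plates to compound at five concentrations. At the GI50, growth is halved. Definition used: TGI = concentration required for complete inhibition of growth.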

Some test systems named below: M14 melanoma; U251 CNS; ACHN renal; NCI-H226 lung; SR leukemia; UACC-62 melanoma; RXF 393 renal; CAKI-1 renal; BT-549 breast; DU-145 prostate.
What all share (assay): NCI-60 cell line screen, 48 h

For `CS(=O)(=O)ON1C(=O)c2ccc(N)cc2C1=O`, the TGI in the test with M14 melanoma was over 100 µM; in the test on U251 CNS, over 100 µM; with ACHN renal, over 100 µM; in the test on NCI-H226 lung it was over 100 µM; in the test on SR leukemia it was over 68.8 µM; in the test on UACC-62 melanoma it was over 100 µM. Also, the TGI with RXF 393 renal is over 71 µM.

Take `COC1(OC)CCC2(C)OC(c3ccccc3)C1O2` (stereo unspecified): the TGI in the test on M14 melanoma, in the test on U251 CNS, with ACHN renal, in the test on CAKI-1 renal, in the test on NCI-H226 lung and with SR leukemia was over 100 µM throughout. The TGI with UACC-62 melanoma and in the test on RXF 393 renal was over 100 µM each time.

In the case of `CC(=O)CCC[C@@H](C)[C@@H]1O[C@H]([C@@]2(C)CCC(=O)O2)CC2[C@H]1OC(=O)C21CC1` (stereo partly specified), the GI50 in the test with U251 CNS was 91.3 µM; in the test with ACHN renal, over 100 µM; in the test on CAKI-1 renal, 61.2 µM; in the test on BT-549 breast it was 25.5 µM; in the test on SR leukemia it was 29.4 µM; in the test on UACC-62 melanoma, over 100 µM. The GI50 in the test on RXF 393 renal was over 100 µM. The TGI was over 100 µM in the test on U251 CNS; over 100 µM in the test on ACHN renal; over 100 µM in the test on CAKI-1 renal; 63.4 µM in the test with BT-549 breast; over 100 µM in the test with SR leukemia; over 100 µM in the test with UACC-62 melanoma. In addition, in the test with RXF 393 renal, the TGI is over 100 µM.

Regarding `N#C/C(=C\c1ccc(O)c(O)c1)C(=O)NCc1cccc(C(F)(F)F)c1`, the GI50 was 6.22 µM in the test with U251 CNS; 5.53 µM with ACHN renal; 2.05 µM in the test with CAKI-1 renal; 5.99 µM in the test with BT-549 breast; 12.1 µM in the test with DU-145 prostate; 10.2 µM with UACC-62 melanoma. In addition, the GI50 with RXF 393 renal was 17.3 µM. In addition, the TGI in the test on U251 CNS was 38.4 µM; with ACHN renal, 35.2 µM; with CAKI-1 renal, 7.39 µM; in the test with BT-549 breast, 34.4 µM; in the test with DU-145 prostate it was 50.9 µM; in the test on UACC-62 melanoma, 23.8 µM. The same compound showed a TGI in the test on RXF 393 renal of 84.5 µM.

As for `c1ccc(C2=Nc3ccccc3N3CNN=C23)cc1`, the GI50 with M14 melanoma is over 100 µM; in the test with U251 CNS, over 100 µM; in the test with ACHN renal it was over 100 µM; in the test with CAKI-1 renal, over 100 µM; in the test with NCI-H226 lung, over 100 µM; in the test on SR leukemia it was 25 µM. In addition, the GI50 in the test with DU-145 prostate is 81.9 µM; with UACC-62 melanoma it was over 100 µM. For the same compound, the TGI with M14 melanoma, with U251 CNS, in the test with ACHN renal, in the test on CAKI-1 renal, with NCI-H226 lung and with SR leukemia was over 100 µM in each case. Besides, the TGI with DU-145 prostate and with UACC-62 melanoma was over 100 µM throughout.

Consider `CN(C)CC1CCCC/C1=N\OC(=O)c1ccccc1` (stereo unspecified), for which the TGI in the test with M14 melanoma, in the test with U251 CNS, in the test on ACHN renal, with CAKI-1 renal, with NCI-H226 lung and in the test on SR leukemia was over 100 µM in each case. The TGI in the test on UACC-62 melanoma and in the test on RXF 393 renal was over 100 µM throughout.

Consider `[pH]1p2[pH]p3p1p3[pH]2.c1cc[c]([Ge]([c]2ccccc2)[c]2ccccc2)cc1.c1cc[c]([Ge]([c]2ccccc2)[c]2ccccc2)cc1.c1cc[c]([Ge]([c]2ccccc2)[c]2ccccc2)cc1`, for which the GI50 was 13.6 µM in the test with M14 melanoma; 7.54 µM in the test on U251 CNS; 16.9 µM with ACHN renal; 20.6 µM in the test on CAKI-1 renal; 20.5 µM in the test on NCI-H226 lung; 12.8 µM in the test on SR leukemia. Moreover, the GI50 was 14.3 µM with UACC-62 melanoma and 64.9 µM in the test with RXF 393 renal. Besides, the TGI in the test with M14 melanoma is 27.3 µM; in the test with U251 CNS, 19.7 µM; with ACHN renal, 36.2 µM; in the test on CAKI-1 renal it was 44.8 µM; with NCI-H226 lung it was 37.2 µM; in the test with SR leukemia, 80.2 µM. Also, the TGI with UACC-62 melanoma was 31 µM; in the test on RXF 393 renal, over 100 µM.

For `NC(=S)N/N=C/C(O[C@@H](/C=N/NC(N)=S)CO)n1cnc2c(N)ncnc21` (stereo partly specified), the TGI with M14 melanoma is over 100 µM; in the test on U251 CNS, over 89.4 µM; in the test with ACHN renal, over 100 µM; in the test on CAKI-1 renal it was over 100 µM; with NCI-H226 lung, over 100 µM; in the test on SR leukemia, over 100 µM. Moreover, the TGI with UACC-62 melanoma and in the test on RXF 393 renal was over 100 µM in each case.

As for `CCOC(=O)C1(C)C2=CC=C(O2)C(C)(C)C2=CC=C(O2)C(C)(C)C2=CC=C(O2)C(C)(C)C2=CC=C1O2`, the TGI in the test on U251 CNS, in the test with ACHN renal, in the test with CAKI-1 renal, with NCI-H226 lung, in the test on SR leukemia and in the test with RXF 393 renal was over 100 µM in each case.

For the compound `COc1ccc(/C=C/C(=O)C(=O)/C=C/c2ccc(OC)c(OC)c2)cc1OC`, the GI50 in the test with M14 melanoma was 1.69 µM; in the test on U251 CNS it was 1.53 µM; in the test with ACHN renal, 2.05 µM; with CAKI-1 renal it was 3.17 µM; in the test with BT-549 breast it was 1.81 µM; with DU-145 prostate, 3.08 µM. Further, the GI50 was 1.92 µM with UACC-62 melanoma and 1.46 µM in the test on RXF 393 renal. In addition, the TGI with M14 melanoma is 4.4 µM; with U251 CNS, 3.6 µM; in the test with ACHN renal, 5.4 µM; with CAKI-1 renal it was over 100 µM; with BT-549 breast it was 4.45 µM; with DU-145 prostate, 14.2 µM. The results for the TGI with UACC-62 melanoma and in the test with RXF 393 renal were 4.87 µM and 3.04 µM, respectively.

With `Nc1nc2c(ncn2C2OC(CO)C(O)C2O)c(=O)o1` (stereo unspecified), the TGI with M14 melanoma, with U251 CNS, in the test on ACHN renal, in the test on CAKI-1 renal, in the test on NCI-H226 lung and with SR leukemia was over 100 µM in each case. Besides, the TGI in the test on DU-145 prostate, in the test with UACC-62 melanoma and with RXF 393 renal was over 100 µM throughout.

Regarding `c1ccc(-c2sc(-c3ccccc3)c3c2C(c2ccccc2)c2c(-c4ccccc4)sc(-c4ccccc4)c2C3c2ccccc2)cc1` (stereo unspecified), the TGI in the test on M14 melanoma, in the test with U251 CNS, with ACHN renal, in the test with CAKI-1 renal, in the test with NCI-H226 lung and in the test with SR leukemia was over 100 µM in each case. The TGI in the test with UACC-62 melanoma and with RXF 393 renal was over 100 µM each time.

On to `Oc1ccc(I)c2cccnc12`, for which the TGI with M14 melanoma was 25.4 µM; in the test with U251 CNS it was over 100 µM; in the test on ACHN renal, over 100 µM; with NCI-H226 lung, 41.8 µM; in the test on SR leukemia, 14.8 µM; in the test with RXF 393 renal, 33.1 µM.
